Experimental data from patent publication US4327097A, “Novel penicillins” (Toyama Chemical Co., Ltd., priority 1974, dated 1982).

What was measured:
Klebsiella pneumoniae [1] = assay: MIC against clinical isolates; type: cell-based; conditions: unit assumed
Proteus vulgaris = assay: MIC against clinical isolates; type: cell-based; conditions: Table 5-6, clinical isolate; unit assumed
Klebsiella pneumoniae [2] = assay: MIC, plate method, standard strains; type: cell-based; conditions: unit assumed
How it was run: (§1)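 Agar plate dilution on Heart infusion agar (pH 7.4); inoculum 10^4 cells per plate from a 10^6 cells/ml suspension. MIC taken as the lowest concentration inhibiting growth.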

[3] = test system: Staphylococcus aureus 209p; assay: MIC, plate method, standard strains; type: cell-based; conditions: unit assumed
How it was run: as §1

Escherichia coli NIHJ = assay: MIC, plate method, standard strains; type: cell-based; conditions: unit assumed
How it was run: as §1

Proteus vulgaris 3027 = assay: MIC, plate method, standard strains; type: cell-based; conditions: unit assumed
How it was run: as §1

[4] = test system: Pseudomonas aeruginosa I.F.O.; assay: MIC, plate method, standard strains; type: cell-based; conditions: unit assumed
How it was run: as §1

Staphylococcus aureus = assay: MIC against clinical isolates; type: cell-based; conditions: unit assumed
Salmonella typhi-murium = assay: MIC against clinical isolates; type: cell-based; conditions: Table 5-5, clinical isolate; unit assumed
Shigella flexneri = assay: MIC against clinical isolates; type: cell-based; conditions: Table 5-5, clinical isolate; unit assumed
Procedure: (§2) The minimum inhibitory concentration (MIC) was determined by the plate method disclosed in "Chemotherapy" (Japan), Vol. 16, (1968), pages 98-99. The culture medium used was a Heart infusion agar (pH 7.4). The number of the cells per plate used in the inoculum was 10^4 (10^6 cells/ml).
(§3) MIC was determined in the same manner as in the preceding paragraph (1).

Shigella sonnei = assay: MIC against clinical isolates; type: cell-based; conditions: Table 5-5, clinical isolate; unit assumed
Procedure: as §2, §3

[5] = test system: β-lactamase, Pseudomonas aeruginosa GN 238; assay: Resistant activity against β-lactamase, iodometric assay; type: biochemical; conditions: β-lactamase from Pseudomonas aeruginosa GN 238; Potassium Penicillin G = 100
Procedure: (3) Resistant activity against β-lactamase, Pseudomonas aerugionsa GN 238:
The resistant activity of each compound against β-lactamase was measured in the manner described below.
β-Lactamase was prepared from Pseudomonas aeruginosa GN 238. This microorganism was cultured in 100 ml of a medium containing 2 g of yeast extract, 10 g of polypeptone, 2 g of glucose, 7 g of disodium hydrogen phosphate, 2 g of potassium dihydrogen phosphate, 1.2 g of ammonium sulfate and 0.4 g of magnesium sulfate, per liter, in a 500-ml Erlenmeyer flask for 6 hrs. at 37° C. with shaking. The resulting cells were collected by centrifugation (5,000 r.p.m.×10 min.), washed three times with 0.1 M phosphate buffer (pH 7.0). Subsequently, the cells were subjected to sonication (20 KHz, 20 min.) and then centrifuged at 15,000 r.p.m. for 60 min. By using the supernatant of enzyme fluid, the resistance of each compound against β-lactamase was determined by the iodometric assay method. Each numeral shown in Table 7 is a relative activity value calculated by assuming as 100 the activity of the control Potassium Penicillin G.

Pseudomonas aeruginosa = assay: MIC against clinical isolates; type: cell-based; conditions: unit assumed; for MIC Pseudomonas aeruginosa GN: strain number not given
Escherichia coli = assay: MIC against clinical isolates; type: cell-based; conditions: unit assumed
[6] = target: T1, β-lactamase, Proteus vulgaris GN 76 (Proteus vulgaris, UniProt P52664); assay: Resistant activity against β-lactamase, iodometric assay; type: biochemical; conditions: control Cephalorizine = 100
T1 construct: By using the supernatant of enzyme fluid; endogenous in cells; host or cells: Proteus vulgaris GN 76 (penicillin G-induced cells, sonicated, 15,000 r.p.m. supernatant)
Procedure: (§4) (4) Resistant activity of each cephalosporin compound against β-lactamase, Proteus vulgaris GN 76 and Escherichia freundii GN 346:
(§5) The resistant activity of each cephalosporin compound against β-lactamase was measured in the manner described below.
(§6) β-lactamase was prepared from Proteus vulgaris GN 76 and Escherichia freundii GN 346. 10 ml of an overnight culture in Heart Infusion broth was diluted with 100 ml of a medium containing 2 g of yeast extract, 10 g of polypeptone, 2 g of glucose, 7 g of disodium hydrogen phosphate, 2 g of potassium dihydrogen phosphate, 1.2 g of ammonium sulfate and 0.4 g of magnesium sulfate, per liter, and incubated with shaking at 37° C. After incubation of 2 hrs, Penicillin G (50 μg/ml) was added as the inducer, and further incubated for 2 hrs. The resulting cells were collected by centrifugation (5,000 r.p.m.×10 min.) and washed two times with 0.1 M phosphate buffer (pH 7.0). Subsequently, the cells were subjected to sonication (20 KHz, 5 min.) and then centrifuged at 15,000 r.p.m. for 60 min. By using the supernatant of enzyme fluid, the stability of each compound against β-lactamase was determined by the iodometric assay method. Each numeral shown in Table 7-2 is a relative activity value calculated by assuming as 100 the activity of the control Cephalorizine.

[7] = target: β-lactamase, Escherichia freundii GN 346 (Citrobacter freundii, UniProt Q46041); assay: as above; type: biochemical; conditions: control Cephalorizine = 100
Procedure: as §4, §5, §6

Chain of β-lactamase, Escherichia freundii GN 346 (Q46041 entry or part of it): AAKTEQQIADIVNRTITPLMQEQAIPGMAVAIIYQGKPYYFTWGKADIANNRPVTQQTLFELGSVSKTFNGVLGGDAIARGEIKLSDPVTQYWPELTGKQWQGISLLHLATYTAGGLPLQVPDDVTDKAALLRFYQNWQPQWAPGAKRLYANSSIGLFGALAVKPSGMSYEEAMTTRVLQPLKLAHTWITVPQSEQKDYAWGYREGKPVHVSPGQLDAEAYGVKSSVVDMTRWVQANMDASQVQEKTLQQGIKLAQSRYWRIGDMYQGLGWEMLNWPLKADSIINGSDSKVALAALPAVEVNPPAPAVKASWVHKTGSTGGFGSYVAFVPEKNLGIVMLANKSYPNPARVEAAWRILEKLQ
T1 sequence (P52664 30-300): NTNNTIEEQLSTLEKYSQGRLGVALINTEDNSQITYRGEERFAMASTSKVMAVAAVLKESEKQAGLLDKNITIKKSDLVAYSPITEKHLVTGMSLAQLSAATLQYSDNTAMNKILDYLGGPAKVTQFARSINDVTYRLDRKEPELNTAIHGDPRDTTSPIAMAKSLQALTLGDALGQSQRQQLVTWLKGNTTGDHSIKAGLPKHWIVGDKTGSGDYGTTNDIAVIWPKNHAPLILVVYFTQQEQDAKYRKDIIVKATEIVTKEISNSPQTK

CN1CCN(C(=O)NC(C(=O)NC2C(=O)N3C2SC(C)(C)C3C(=O)O)c2ccccc2)C(=O)C1=O (single isomer, unassigned) [Compound 37]
6.25 µg/mL: MIC Klebsiella pneumoniae (Klebsiella pneumoniae [2]; Table 3, standard strain) | MIC Pseudomonas aeruginosa I.F.C ([4]; Table 3, standard strain) | MIC Staphylococcus aureus F-4 (Staphylococcus aureus; Table 5-1, clinical isolate) | MIC Shigella flexneri JS 11839 (Shigella flexneri) | MIC Shigella sonnei JS 11755 (Shigella sonnei) | MIC Pseudomonas aeruginosa GN 82 (Pseudomonas aeruginosa; Table 5-3, clinical isolate) | MIC Pseudomonas aeruginosa GN 221 (Pseudomonas aeruginosa; Table 5-3, clinical isolate) | MIC Escherichia coli GN 3481 (Escherichia coli; Table 5-2, clinical isolate) | MIC Escherichia coli K-2 (Escherichia coli; Table 5-2, clinical isolate)
12.5 µg/mL: MIC Klebsiella pneumoniae GN 917 (Klebsiella pneumoniae [1]; Table 5-4, clinical isolate) | MIC Staphylococcus aureus F-1 (Staphylococcus aureus; Table 5-1, clinical isolate) | MIC Staphylococcus aureus MS 8713 (Staphylococcus aureus; Table 5-1, clinical isolate) | MIC Pseudomonas aeruginosa GN 163 (Pseudomonas aeruginosa; Table 5-3, clinical isolate) | MIC Pseudomonas aeruginosa GN 376 (Pseudomonas aeruginosa; Table 5-3, clinical isolate) | MIC Pseudomonas aeruginosa GN 1091 (Pseudomonas aeruginosa; Table 5-3, clinical isolate) | MIC Escherichia coli GN 3452 (Escherichia coli; Table 5-2, clinical isolate) | MIC Escherichia coli K-1 (Escherichia coli; Table 5-2, clinical isolate)
15%: Relative activity (%), resistant activity against β-lactamase [5]
100 µg/mL: MIC Klebsiella pneumoniae GN 4117 (Klebsiella pneumoniae [1]; Table 5-4, clinical isolate) | MIC Shigella sonnei JS 11232 (Shigella sonnei) | MIC Pseudomonas neruginosa S-4 (Pseudomonas aeruginosa; Table 5-4, clinical isolate)
200 µg/mL: MIC Klebsiella pneumoniae GN 4081 (Klebsiella pneumoniae [1]; Table 5-4, clinical isolate) | MIC Pseudomonas neruginosa S-1 (Pseudomonas aeruginosa; Table 5-4, clinical isolate) | MIC Escherichia coli GN 3465 (Escherichia coli; Table 5-2, clinical isolate)
50 µg/mL: MIC Pseudomonas aeruginosa GN (Pseudomonas aeruginosa; Table 5-3, clinical isolate) | MIC Pseudomonas aeruginosa GN 1035 (Pseudomonas aeruginosa; Table 5-3, clinical isolate) | MIC Pseudomonas neruginosa S-3 (Pseudomonas aeruginosa; Table 5-4, clinical isolate)
< 0.4 µg/mL: MIC Proteus vulgaris (Proteus vulgaris)
> 200 µg/mL: MIC Staphylococcus aureus F-5 (Staphylococcus aureus; Table 5-1, clinical isolate) | MIC Salmonella typhi-murium SL 2136 (Salmonella typhi-murium) | MIC Shigella flexneri JS 11215 (Shigella flexneri) | MIC Escherichia coli GN 3611 (Escherichia coli; Table 5-2, clinical isolate) | MIC Escherichia coli K-3 (Escherichia coli; Table 5-2, clinical isolate)
< 1.57 µg/mL: MIC Staphylococcus aureus 209p ([3]; Table 3, standard strain, Heart infusion agar pH 7.4) | MIC Esche--richin coil NIHJ (Escherichia coli NIHJ; Table 3, standard strain) | MIC Proteus vulgaris 3027 (Proteus vulgaris 3027; Table 3, standard strain)
3.13 µg/mL: MIC Staphylococcus aureus F-3 (Staphylococcus aureus; Table 5-1, clinical isolate) | MIC Staphylococcus aureus MS 8588 (Staphylococcus aureus; Table 5-1, clinical isolate) | MIC Staphylococcus aureus MS 8596 (Staphylococcus aureus; Table 5-1, clinical isolate) | MIC Staphylococcus aureus MS 8684 (Staphylococcus aureus; Table 5-1, clinical isolate) | MIC Escherichia coli GN 3435 (Escherichia coli; Table 5-2, clinical isolate) | MIC Escherichia coli K-4 (Escherichia coli; Table 5-2, clinical isolate)

CC(=O)OCC1=C(C(=O)O)N2C(=O)[C@@H](NC(=O)Cc3cccs3)[C@H]2SC1 [Sodium Cephalothin, reference compound]
12.5 µg/mL: MIC Klebsiella pneumoniae GN 4081 (Klebsiella pneumoniae [1]; Table 6-4, clinical isolate) | MIC Escherichia coli GN 3452 (Escherichia coli; Table 6-2, clinical isolate) | MIC Escherichia coli GN 3481 (Escherichia coli; Table 6-2, clinical isolate)
3.13 µg/mL: MIC Klebsiella pneumoniae GN 917 (Klebsiella pneumoniae [1]; Table 6-4, clinical isolate)
105%: Relative activity (%) against β-lactamase, Pr. vulgaris GN 76 [6]
17%: Relative activity (%) against β-lactamase, E. freundii GN 346 [7]
< 0.4 µg/mL: MIC Staphylococcus aureus F-1 (Staphylococcus aureus; Table 6-1, clinical isolate) | MIC Staphylococcus aureus F-2 (Staphylococcus aureus; Table 6-1, clinical isolate) | MIC Staphylococcus aureus F-3 (Staphylococcus aureus; Table 6-1, clinical isolate) | MIC Staphylococcus aureus F-4 (Staphylococcus aureus; Table 6-1, clinical isolate) | MIC Staphylococcus aureus MS 8588 (Staphylococcus aureus; Table 6-1, clinical isolate) | MIC Staphylococcus aureus MS 8596 (Staphylococcus aureus; Table 6-1, clinical isolate) | MIC Staphylococcus aureus MS 8619 (Staphylococcus aureus; Table 6-1, clinical isolate) | MIC Staphylococcus aureus MS 8684 (Staphylococcus aureus; Table 6-1, clinical isolate) | MIC Staphylococcus aureus MS 8713 (Staphylococcus aureus; Table 6-1, clinical isolate)
6.25 µg/mL: MIC Klebsiella pneumoniae GN 4117 (Klebsiella pneumoniae [1]; Table 6-4, clinical isolate) | MIC Escherichia coli GN 3435 (Escherichia coli; Table 6-2, clinical isolate) | MIC Escherichia coli K-1 (Escherichia coli; Table 6-2, clinical isolate) | MIC Escherichia coli K-2 (Escherichia coli; Table 6-2, clinical isolate)
1.56 µg/mL: MIC Staphylococcus aureus F-5 (Staphylococcus aureus; Table 6-1, clinical isolate)
> 200 µg/mL: MIC Pseudomonas aeruginosa GN (Pseudomonas aeruginosa; Table 6-3, clinical isolate) | MIC Pseudomonas aeruginosa GN4 (Pseudomonas aeruginosa; Table 6-3, clinical isolate) | MIC Pseudomonas aeruginosa GN 82 (Pseudomonas aeruginosa; Table 6-3, clinical isolate) | MIC Pseudomonas aeruginosa GN 163 (Pseudomonas aeruginosa; Table 6-3, clinical isolate) | MIC Pseudomonas aeruginosa GN 221 (Pseudomonas aeruginosa; Table 6-3, clinical isolate) | MIC Pseudomonas aeruginosa GN 376 (Pseudomonas aeruginosa; Table 6-3, clinical isolate) | MIC Pseudomonas aeruginosa GN 1035 (Pseudomonas aeruginosa; Table 6-3, clinical isolate) | MIC Pseudomonas aeruginosa GN 1091 (Pseudomonas aeruginosa; Table 6-3, clinical isolate) | MIC Pseudomonas aeruginosa GN 2565 (Pseudomonas aeruginosa; Table 6-3, clinical isolate) | MIC Pseudomonas aeruginosa GN 2987 (Pseudomonas aeruginosa; Table 6-3, clinical isolate) | MIC Pseudomonas aeruginosa S-1 (Pseudomonas aeruginosa; Table 6-4, clinical isolate) | MIC Pseudomonas aeruginosa S-2 (Pseudomonas aeruginosa; Table 6-4, clinical isolate) | MIC Pseudomonas aeruginosa S-3 (Pseudomonas aeruginosa; Table 6-4, clinical isolate) | MIC Pseudomonas aeruginosa S-4 (Pseudomonas aeruginosa; Table 6-4, clinical isolate)

CCN1CCN(C(=O)NC(C(=O)NC2C(=O)N3C(C(=O)O)=C(COC(N)=O)CSC23)c2ccc(O)cc2)C(=O)C1=O (single isomer, unassigned) [Compound No. 84]
< 1.57 µg/mL: MIC Klebsiella pneumoniae (Klebsiella pneumoniae [2]; Table 4, standard strain) | MIC Staphylococcus aureus 209p ([3]; Table 4, standard strain) | MIC Escherichia coli NIHJ (Escherichia coli NIHJ; Table 4, standard strain) | MIC Proteus vulgaris 3027 (Proteus vulgaris 3027; Table 4, standard strain)
25 µg/mL: MIC Pseudomonas aeruginosa I.F.O. ([4]; Table 4, standard strain)
10%: Relative activity (%) against β-lactamase, Pr. vulgaris GN 76 [6]
1%: Relative activity (%) against β-lactamase, E. freundii GN 346 [7]
